Laboratory results: PubChem BioAssay AID1053148 (Broad Institute, 2014)

Test system: HepG2 ERK1/2 phosphorylation, Western blot imaging
Experiment: phospho-ERK1/2 induction in hepatoma cells – cell-based, HepG2, Western blot imaging, cherry-pick, mechanism study for Trib1 inducer project, late-stage follow-up (AID 1053148)
Conditions: stronger effect = higher value

## CN1C(=O)c2cc(NC(=O)c3ccc(C(F)(F)F)cc3)ccc2OC[C@@H]2O[C@H](CC(=O)NC3Cc4ccccc4C3)CC[C@@H]21
  fold induction x10: 2
